Assay results taken from patent US8822515B2, “Heterocyclic benzoxazole compositions as inhibitors of hepatitis C virus” (University of Maryland, Baltimore County, priority 2009, dated 2014).
“Also recorded” adds a separate entry of the source. Where two headings read alike, the source gives them in different places.

Tests used:
[1] = molecular target: T1, HCV NTPase/helicase (Hepatitis C virus genotype 1a, UniProt P27958); assay: NTPase/Helicase assay, HCV helicase, DNA substrate; assay type: biochemical; details: for inhibition of NTPase/helicase of HCV (in words) / IC50: DNA substrate
Experimental: Inhibitory activity of HCV was measured using a DNA substrate.
NTPase/Helicase activity determined by a previously described method. Helicase activity was determined as a function of increasing concentrations of the compounds in the presence of ATP adjusted to 105 μM, 235 μM, for HCV, JEV, and DENV NTPase/Helicase, respectively and […] of DNA substrate (concentration of nucleotide base). The substrate and released strand were separated in TBE polyacrylamide gel and visualized by exposition of dried gel onto X-ray film for 20 h. The part of the gels corresponding to the released strand were excised, and the ^32P radioactivity was quantified.

[2] = molecular target: T1, HCV NTPase/helicase; assay: NTPase/Helicase assay, HCV helicase, RNA substrate; assay type: biochemical
Experimental: NTPase/Helicase activity determined by a previously described method. […] The substrate and released strand were separated in TBE polyacrylamide gel and visualized by exposition of dried gel onto X-ray film for 20 h. The part of the gels corresponding to the released strand were excised, and the ^32P radioactivity was quantified.

[3] = molecular target: HCV ATPase (Hepatitis C virus genotype 1a, UniProt P27958); assay: ATPase analysis of HCV NTPase/helicase; assay type: biochemical
[4] = tested on: HCV replicon in Huh7 ET (luc-ubi-neo/ET) cell line; assay: HCV replicon assay (luciferase based), antiviral activity; assay type: cell-based, Hepatitis C Virus; set-up: SI50: unit not given here; details: for EC50: Hepatitis C virus, Huh7 ET; for activity against HCV in replicon assay (in words): whole cells; for SI50: selectivity index, luciferase based replicon assay
From the text: (§1) To determine if the compounds are active in whole cells, they were screened using an HCV replicon assay. […] Compound 2b also has similar selectivity towards HCV as human interferon alpha-2b (rIFNa-2b), the positive control.
In the replicon assays a Huh7 ET (luc-ubi-neo/ET) cell line is used. This particular construct contain the 5′NTR (IRES) of HCV, producing a firefly luciferase (luc), ubiquitin (ubiq) and neomycin phosphotranferase (neo) fusion protein. This modification makes the cell line more robust and provides the additional stability needed for antiviral screening. […]

[5] = tested on: Huh7 ET (luc-ubi-neo/ET) cell line; assay: HCV replicon assay (luciferase based), cytotoxicity; assay type: cell-based; details: cytotoxicity in luciferase based replicon assay, high test conc 20 μM (rIFNa-2b 2)
From the text: as §1
In the replicon assays a Huh7 ET (luc-ubi-neo/ET) cell line is used. This particular construct contain the 5′NTR (IRES) of HCV, producing a firefly luciferase (luc), ubiquitin (ubiq) and neomycin phosphotranferase (neo) fusion protein. This modification makes the cell line more robust and provides the additional stability needed for antiviral screening. The effects of the drug were examined in triplicate at a single high-test concentration of 20 μM on HCV RNA-derived LUC activity and cytotoxicity.

[6] = tested on: HCV; assay: RNA based confirmatory assay, antiviral activity; assay type: cell-based, Hepatitis C Virus; set-up: SI50: unit not given here; details: for EC50: Hepatitis C virus; for SI50: selectivity index, RNA based confirmatory assay
[7] = RNA based confirmatory assay, cytotoxicity; assay type: cell-based; details: cytotoxicity in RNA based confirmatory assay; high test conc 20 μM (rIFNa-2b 2)
[8] = tested on: integrase; assay: Integrase test; assay type: biochemical
[9] = read-out: HCV Helicase (IC50) DNA (converted)
[10] = read-out: HCV Helicase (IC50) RNA
[11] = HCV Helicase (IC50) DNA, in brackets, molar value in brackets
[12] = HCV Helicase (IC50) RNA, in brackets, molar value in brackets

Chain of HCV ATPase (P27958 1027-1657): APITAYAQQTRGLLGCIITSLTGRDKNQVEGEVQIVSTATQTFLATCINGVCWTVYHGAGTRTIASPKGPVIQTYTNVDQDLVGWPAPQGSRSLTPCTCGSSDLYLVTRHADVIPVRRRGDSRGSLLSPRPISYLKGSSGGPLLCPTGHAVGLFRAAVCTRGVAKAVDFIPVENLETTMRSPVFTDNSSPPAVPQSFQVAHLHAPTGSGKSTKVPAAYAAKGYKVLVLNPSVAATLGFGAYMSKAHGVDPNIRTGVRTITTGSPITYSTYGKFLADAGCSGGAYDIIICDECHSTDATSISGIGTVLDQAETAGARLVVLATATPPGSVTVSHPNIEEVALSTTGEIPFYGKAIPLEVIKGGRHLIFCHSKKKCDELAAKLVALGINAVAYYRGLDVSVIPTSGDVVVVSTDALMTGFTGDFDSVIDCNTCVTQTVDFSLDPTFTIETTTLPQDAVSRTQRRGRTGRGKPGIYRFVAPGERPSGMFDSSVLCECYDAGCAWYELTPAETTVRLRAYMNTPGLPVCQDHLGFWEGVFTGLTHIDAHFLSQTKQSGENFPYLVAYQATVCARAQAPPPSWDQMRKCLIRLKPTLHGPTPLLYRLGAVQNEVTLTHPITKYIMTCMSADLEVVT
T1 sequence (P27958 1027-1657): as above

Row | Structure (SMILES) | activity in HCV NTPase/helicase assay (in words) [1] | inhibition of NTPase/helicase of HCV (in words) [1] | IC50 [1, 9] [µM] | IC50 [2, 10] [µM] | IC50 ([3]; read-out: ATPase (IC50)) [µM] | EC50 [4] [µM] | activity against HCV in replicon assay (in words) [4] | IC50 [5] [µM] | EC50 [6] [µM] | IC50 [7] [µM] | IC50 ([1]; HCV Helicase (IC50) DNA) [µM] | IC50 [1, 11] [µM] | inhibition of HCV helicase with RNA substrate (in words) [2] | IC50 ([2]; HCV Helicase (IC50) RNA) [µM] | IC50 [2, 12] [µM] | IC50 [3] [µM] | SI50 [4] | activity against integrase [8] | melting point [°C] | SI50 [6]
1 | COC(=O)c1cccc2oc(-c3cccc4oc(-c5ccccc5O)nc34)nc12 [Compound 1, UK-1] | inactive; also recorded: did not show any activity | inhibit | 378 | > 1290 | > 1290 | 0.21 | still active against HCV | 11.6 | 0.72 | > 20 |  |  |  |  |  |  |  |  |  | 
2 | COC(=O)c1cccc2oc(-c3ccc4c(OCc5ccccc5)cccc4c3O)nc12 [Compound 2a, 2-(5-Benzyloxy-1-hydroxy-naphthalene-2-yl)-benzoxazole-4-carboxylic Acid Methyl Ester] |  | inhibit |  |  |  | 1.13 |  | > 20 |  |  | 3.76 | 3.8 | inhibitory | 20.4 | 20 | > 1180 | >17.7 | inactive | 183.5 to 185 | 
3 | COC(=O)c1cccc2oc(-c3ccc4ccc(OCc5ccccc5)cc4c3O)nc12 [Compound 2b, 2-(7-benzyloxy-1-hydroxy-napthalen-2-yl)-benzoxazole-4 Carboxylic Acid Methyl Ester] |  | inhibit |  |  |  | 0.47 |  | > 20 |  |  | 2.59 | 2.6 | inhibitory | 19.7 | 20 | > 1180 | >42.6 | inactive |  | 
4 | COC(=O)c1cccc2oc(-c3ccc4ccccc4c3O)nc12 [Compound 6, 2-(1-Hydroxy-naphthalen-2-yl)benzoxazole-4-carboxylic Acid Methyl Ester] |  | inhibit |  |  |  | 0.21 |  | 1.61 | 1.32 | 1.68 | 539 | 539 | inhibitory | 592 | 591 | > 1570 | 7.67 | inactive |  | >1.27
5 | COC(=O)c1cccc2oc(-c3ccccc3O)nc12 [Compound 8] | inactive; also recorded: did not show any activity |  | > 1860 | > 1860 | > 1860 | 0.32 | still active against HCV | 5.2 | 0.58 | 5.18 |  |  |  |  |  |  | 16.2 |  |  | >8.93
6 | O=C(O)c1cccc2oc(-c3ccccc3O)nc12 [Compound 9] | inactive; also recorded: did not show any activity |  | > 1960 | > 1960 | > 1960 | 0.21 | still active against HCV | 3.51 |  |  |  |  |  |  |  |  | 16.7 |  |  | 
7 | CNC(=O)c1cccc2oc(-c3ccccc3O)nc12 [Compound 10] | inactive; also recorded: did not show any activity |  | > 1860 | > 1860 | > 1860 | 1.41 | still active against HCV | 6.32 |  |  |  |  |  |  |  |  | 4.5 |  |  | 
